Literature values, collected in article PMC8018465, “Antimicrobial activities of a small molecule compound II-6s against oral streptococci” (Journal of Oral Microbiology, 2021).

Test system: methicillin-resistant Staphylococcus aureus (MRSA)
Set-up: method as in PMID 30940910
Details: cited from earlier work

SMILES: CC(C)(Cc1ccc2ccccc2c1)NC[C@H](O)CNc1cc(C(F)(F)F)cc(C(F)(F)F)c1 [II-6s, (S)-1-((3,5-bis(trifluoromethyl)phenyl)amino)-3-((2-methyl-1-(naphthalen-2-yl)propan-2-yl)amino)propan-2-ol]
- antimicrobial activity against MRSA: decent antimicrobial activity
